In brackets after ≈: the same amount, converted by molar mass. Where a SMILES comes first, the peptide text is derived from it. Bridges are numbered along the chain shown (N, C = ends).

Assay [1] concerns K. pneu NDM1 BAA-2473. It is filed as cell-based, Klebsiella pneumoniae. The protocol: (§1) In order to determine the MIC values of the peptides, growth and inhibition of various bacteria were monitored after treatment with the peptides of the invention (Table B). E. coli, K. pneumoniae, P. aeruginosa and Salmonella bacteria were cultured at 37° C. and at 5×10^6 CFU/ml in a standard 96-well-plate, in Mueller Hinton broth. […] The growth of the bacteria was continuously monitored via spectrophotometry at a wave-length of 625 nm. As bacterial growth progresses, Optical density at 625 nm (OD625 nm) values increase, and where the bacterial growth is inhibited, OD625 nm values remain constant. The experimental system and parameters described herein were used to determine the MIC values of OMN3, OMN5, OMN8 and OMN9 on various bacteria strains (Table B). Using the standard MHB MIC testing for antibiotic activity

Assay [2] has as its system E. coli ESBL BAA-198. It counts as cell-based, Escherichia coli. The protocol: as §1
The subject of assay [3] is E. coli Sens. 25922 QC strain. It counts as cell-based, Escherichia coli. The protocol: as §1
In assay [4] the test system is E. coli CR BAA-2452. It is filed as cell-based, Escherichia coli. The protocol:
as §1

In assay [5] the test system is E. coli strains. It counts as cell-based. The protocol:
as §1

Assay [6] deals with K. pneu Sens. 700603 QC strain. It counts as cell-based, K. pneumoniae. The method, then: as §1
For assay [7], the system named is K . pneu KPC + BAA-2344. It is filed as cell-based, Klebsiella pneumoniae. The method, then: as §1
In assay [8] the test system is P. aeruginosa BAA-2796. It is filed as cell-based, Pseudomonas aeruginosa. The method, then:
as §1

Assay [9] deals with P. aeruginosa BAA-2795. It is filed as cell-based, Pseudomonas aeruginosa. The method, then:
as §1

Assay [10] relates to P. aeruginosa BAA-2110. It is filed as cell-based, Pseudomonas aeruginosa. The protocol: (§2) In order to determine the Minimal Bactericidal Concentration (MBC) values of the peptides, colony formation of various bacteria strains was monitored and determined after treatment with the peptides of the invention. Multi-Drug Resistant A. baumannii bacteria were cultured with or without OMN6 in increasing concentrations, as is detailed in FIG. 6 and Example 6. Immediately afterwards, samples of each experimental group were diluted to 1×10^4 to 1×10^6 as necessary, and further, the samples were plated on appropriate medium-agar plates. All the plates were incubated at 37° C. for 24-48 hours. Colonies were counted and CFU/ml in the original sample, prior to plating, were calculated and determined. An example of the plates, after incubation, is presented in FIG. 7 where the plate on the left side of the image is the CTRL sample treated with DDW and in the right side of the image increasing concentrations of OMN6 are presented, as specified therein.
(§3) The experimental system and parameters described here were used to determine the MBC values of OMN2, OMN6, OMN7 and OMN11 on various bacteria strains with and without the supplementation of 10% FBS (Table 6 and Table 8).

Assay [11] concerns P. aeruginosa BAA-2110. It counts as cell-based, Pseudomonas aeruginosa. The protocol:
(§4) In order to determine the MIC values of the peptides, growth and inhibition of various bacteria were monitored after treatment with the peptides of the invention (Table 6).
(§5) E. coli bacteria were cultured with or without OMN6 in increasing concentrations of 0.8-200 μM and with or without Fetal Bovine Serum 10% for 17-20 hours. The growth of the bacteria was continuously monitored via spectrophotometry at 600 nm. As bacterial growth progresses, OD600 nm values rise, and where the growth is inhibited OD600 nm values remain constant.
(§6) The experimental system and parameters described here were used to determine the MIC values of OMN2, OMN6, OMN7 and OMN11 on various bacteria strains (Table 7 and Table 8).
This is another data set of the same source.

Assay [12] relates to E. coli Sens. 25922. It counts as cell-based, Escherichia coli. The protocol: as §2, §3
In assay [13] the test system is E. coli Sens. 25922. It is filed as cell-based, Escherichia coli. The following applies: Sens. 25922. The method, then: as §4, §5, §6

For orientation: MIC means the least concentration at which growth counts as inhibited. Take `CC[C@H](C)[C@@H]1NC(=O)CNC(=O)[C@H](CC(=O)O)NC(=O)[C@H](CCCNC(=N)N)NC(=O)[C@H]([C@@H](C)CC)NC(=O)[C@H](CC(N)=O)NC(=O)[C@H](CCCNC(=N)N)NC(=O)CNC(=O)[C@H](CCSC)NC(=O)[C@H](CCCCN)NC(=O)[C@H](CCC(=O)O)NC(=O)[C@H]([C@@H](C)CC)NC(=O)[C@H](CCCCN)NC(=O)[C@H](CCCCN)NC(=O)[C@H](Cc2ccccc2)NC(=O)[C@H]([C@@H](C)CC)NC(=O)[C@H](CCCCN)NC(=O)[C@H](Cc2c[nH]c3ccccc23)NC(=O)[C@H](CCCNC(=N)N)NC(=O)[C@@H](NC(=O)[C@@H](N)CCSC)CSSC[C@@H](C(=O)O)NC(=O)[C@H]([C@@H](C)CC)NC(=O)[C@H](C)NC(=O)[C@H](CCCCN)NC(=O)[C@H](C)NC(=O)[C@H](CO)NC(=O)CNC(=O)[C@H](CC(C)C)NC(=O)[C@H](C(C)C)NC(=O)[C@H](CCC(=O)O)NC(=O)[C@H]([C@@H](C)CC)NC(=O)[C@H](C)NC(=O)[C@@H]2CCCN2C(=O)CNC(=O)[C@H](C)NC(=O)[C@H](C)NC(=O)[C@H](C(C)C)NC1=O` [OMN8] (H-MCRWKIFKKIEKMGRNIRDGIVAAGPAIEVLGSAKAIC-OH; disulfide 2-38; N-terminus and C-terminus assumed): the minimum inhibitory concentration (MIC) in assay [1] amounted to 64 µg/mL (≈ 15.3 µM); in [2] it was 16 µg/mL (≈ 3.83 µM); in assay [3], 32 µg/mL (≈ 7.67 µM); in assay [4] it was 32 µg/mL (≈ 7.67 µM). Further, in assay [5], the “MIC for E. coli strains” value lay within 16 to 32 µg/mL.

For `CC[C@H](C)[C@@H]1NC(=O)CNC(=O)[C@H](CC(N)=O)NC(=O)[C@H](CCCNC(=N)N)NC(=O)[C@H]([C@@H](C)CC)NC(=O)[C@H](CC(N)=O)NC(=O)[C@H](CCCNC(=N)N)NC(=O)CNC(=O)[C@H](C(C)C)NC(=O)[C@H](CCCCN)NC(=O)[C@H](CCC(=O)O)NC(=O)[C@H]([C@@H](C)CC)NC(=O)[C@H](CCCCN)NC(=O)[C@H](CCCCN)NC(=O)[C@H](Cc2ccccc2)NC(=O)[C@H]([C@@H](C)CC)NC(=O)[C@H](CCCCN)NC(=O)[C@H](Cc2c[nH]c3ccccc23)NC(=O)[C@H](CCCCN)NC(=O)[C@@H](NC(=O)[C@@H](N)CCSC)CSSC[C@@H](C(=O)O)NC(=O)[C@H](CC(C)C)NC(=O)[C@H](C)NC(=O)[C@H](CCCCN)NC(=O)[C@H](C)NC(=O)[C@H](CCC(=O)O)NC(=O)CNC(=O)[C@H](CC(C)C)NC(=O)[C@H](C(C)C)NC(=O)[C@H](C)NC(=O)[C@H](C(C)C)NC(=O)[C@H](C)NC(=O)[C@@H]2CCCN2C(=O)CNC(=O)[C@H](C)NC(=O)[C@H](CCCCN)NC(=O)[C@H]([C@@H](C)CC)NC1=O` [OMN9] (H-MCKWKIFKKIEKVGRNIRNGIIKAGPAVAVLGEAKALC-OH; disulfide 2-38; N-terminus and C-terminus assumed), the MIC in [6] came to 32 µg/mL (≈ 7.7 µM); in assay [7], 64 µg/mL (≈ 15.4 µM); in [1], 32 µg/mL (≈ 7.7 µM); in [2] it was 4 µg/mL (≈ 0.963 µM); in assay [3], 8 µg/mL (≈ 1.93 µM); in [4] it was 8 µg/mL (≈ 1.93 µM). Besides, the MIC in assay [8] and in assay [9] was 64 µg/mL (≈ 15.4 µM) throughout. Moreover, the “MIC for E. coli strains” value in assay [5] was in the range of 4 to 8 µg/mL.

The MBC is the smallest concentration meeting the test's criterion for killing. A lower MBC goes with greater bactericidal potency. In assay [10], `CC[C@H](C)[C@H](NC(=O)CNC(=O)[C@H](CC(=O)O)NC(=O)[C@H](CCCNC(=N)N)NC(=O)[C@@H](NC(=O)[C@H](CC(N)=O)NC(=O)[C@H](CCC(N)=O)NC(=O)CNC(=O)[C@@H](NC(=O)[C@H](CCCCN)NC(=O)[C@H](CCC(=O)O)NC(=O)[C@@H](NC(=O)[C@H](CCCCN)NC(=O)[C@H](CCCCN)NC(=O)[C@H](Cc1ccccc1)NC(=O)[C@@H](NC(=O)[C@H](CCCCN)NC(=O)[C@H](Cc1c[nH]c2ccccc12)NC(=O)[C@H](CCCNC(=N)N)NC(=O)[C@H](CS)NC(=O)[C@@H](N)CCSC)[C@@H](C)CC)[C@@H](C)CC)C(C)C)[C@@H](C)CC)C(=O)N[C@H](C(=O)N[C@@H](CCCCN)C(=O)N[C@@H](C)C(=O)NCC(=O)N1CCC[C@H]1C(=O)N[C@@H](C)C(=O)N[C@H](C(=O)N[C@@H](C)C(=O)N[C@H](C(=O)N[C@H](C(=O)NCC(=O)N[C@@H](CCC(N)=O)C(=O)N[C@@H](C)C(=O)N[C@@H](C)C(=O)N[C@H](C(=O)N[C@H](C(=O)N[C@@H](CS)C(N)=O)[C@@H](C)CC)[C@@H](C)O)C(C)C)C(C)C)C(C)C)C(C)C` [OMN7] (H-MCRWKIFKKIEKVGQNIRDGIVKAGPAVAVVGQAATIC-NH2; N-terminus and C-terminus assumed) showed an MBC of 50 µM (≈ 205 µg/mL). In addition, the MIC in assay [11] came out at 50 µM (≈ 205 µg/mL).

Take `CC[C@H](C)[C@H](NC(=O)CNC(=O)[C@H](CCC(=O)O)NC(=O)[C@H](CO)NC(=O)[C@@H](NC(=O)[C@H](CCCNC(=N)N)NC(=O)[C@H](CCCCN)NC(=O)[C@H](CCCCN)NC(=O)[C@H](C)NC(=O)[C@H](CO)NC(=O)[C@H](CC(N)=O)NC(=O)[C@H](CCC(=O)O)NC(=O)[C@H](CC(C)C)NC(=O)[C@H](CCCCN)NC(=O)[C@H](CCCCN)NC(=O)[C@H](C)NC(=O)[C@@H](NC(=O)[C@H](CCCCN)NC(=O)[C@H](CO)NC(=O)[C@H](CC(C)C)NC(=O)[C@H](Cc1c[nH]c2ccccc12)NC(=O)[C@H](CO)NC(=O)[C@H](CS)NC(=O)[C@@H](N)CCSC)[C@@H](C)O)[C@@H](C)CC)C(=O)N[C@@H](C)C(=O)N[C@H](C(=O)N[C@@H](C)C(=O)N[C@H](C(=O)N[C@@H](CCC(N)=O)C(=O)NCC(=O)NCC(=O)N1CCC[C@H]1C(=O)N[C@@H](CCCNC(=N)N)C(=O)N[C@@H](CS)C(N)=O)[C@@H](C)CC)[C@@H](C)CC` [OMN11] (H-MCSWLSKTAKKLENSAKKRISEGIAIAIQGGPRC-NH2; N-terminus and C-terminus assumed): the MBC was 25 µM (≈ 91.9 µg/mL) in assay [12] and 40 µM (≈ 147 µg/mL) in assay [10]. Moreover, the MIC in assay [13] was determined as 25 µM (≈ 91.9 µg/mL); in assay [11] it was 40 µM (≈ 147 µg/mL).

(Values after patent publication US20200399329A1, “ANTIMICROBIAL PEPTIDES” (priority 2015, published 2020).)
